The text below walks through data of publication PMC8799717, “Pharmacological targeting PIKfyve and tubulin as an effective treatment strategy for double-hit lymphoma” (Cell Death Discovery, 2022).

Some targets named below: ACVRL1 (Homo sapiens, UniProt P37023); BMPR1A (Homo sapiens, UniProt P36894); EGFR(L858R) (Homo sapiens, UniProt P00533, L858R); EPHB6 (Homo sapiens, UniProt O15197); FLT3(R834Q) (Homo sapiens, UniProt P36888, R834Q); KIT(A829P) (Homo sapiens, UniProt P10721, A829P); MARK2 (Homo sapiens, UniProt Q7KZI7); NEK1 (Homo sapiens, UniProt Q96PY6); PIK3CA(M1043I) (Homo sapiens, UniProt P42336, M1043I); RIPK1 (Homo sapiens, UniProt Q13546); SBK1 (Homo sapiens, UniProt Q52WX2); SGK3 (Homo sapiens, UniProt Q96BR1); SLK (Homo sapiens, UniProt Q9H2G2); TAOK2 (Homo sapiens, UniProt Q9UL54); TTK (Homo sapiens, UniProt P33981); WNK3 (Homo sapiens, UniProt Q9BYP7).

Common to all, as to assay: biochemical
Holding throughout (set-up): KINOMEscan active-site-directed competition binding panel, 468 kinases, percent of DMSO control at 1 uM
Holding throughout (details): KINOMEscan binding, percent of DMSO control; read-out: Ctrl%

Assay [1] deals with T1, ABL1(F317L)-phosphorylated (Homo sapiens, UniProt P00519, F317L).
T1 construct: phosphorylated

The target in assay [2] is T2, ABL1(M351T)-phosphorylated (Homo sapiens, UniProt P00519, M351T).
T2 construct: phosphorylated

The target of assay [3] is T3, ABL1(Q252H)-nonphosphorylated (Homo sapiens, UniProt P00519, Q252H).
T3 construct: nonphosphorylated

The next assay addresses T4, ADCK4 (Homo sapiens, UniProt Q96D53).
T4 construct: gene COQ8B

Another assay has as its target T5, CDC2L2 (Homo sapiens, UniProt Q9UQ88).
T5 construct: gene CDK11A

For the next assay, the target named is T6, ERK5 (Homo sapiens, UniProt Q13164).
T6 construct: gene MAPK7

Assay [4] concerns the target T7, JAK2(JH1domain-catalytic) (Homo sapiens, UniProt O60674).
T7 construct: JH1domain-catalytic

For another assay, the target named is T8, LKB1 (Homo sapiens, UniProt Q15831).
T8 construct: gene STK11

Chain of EGFR(L858R) (P00533 whole entry L858R): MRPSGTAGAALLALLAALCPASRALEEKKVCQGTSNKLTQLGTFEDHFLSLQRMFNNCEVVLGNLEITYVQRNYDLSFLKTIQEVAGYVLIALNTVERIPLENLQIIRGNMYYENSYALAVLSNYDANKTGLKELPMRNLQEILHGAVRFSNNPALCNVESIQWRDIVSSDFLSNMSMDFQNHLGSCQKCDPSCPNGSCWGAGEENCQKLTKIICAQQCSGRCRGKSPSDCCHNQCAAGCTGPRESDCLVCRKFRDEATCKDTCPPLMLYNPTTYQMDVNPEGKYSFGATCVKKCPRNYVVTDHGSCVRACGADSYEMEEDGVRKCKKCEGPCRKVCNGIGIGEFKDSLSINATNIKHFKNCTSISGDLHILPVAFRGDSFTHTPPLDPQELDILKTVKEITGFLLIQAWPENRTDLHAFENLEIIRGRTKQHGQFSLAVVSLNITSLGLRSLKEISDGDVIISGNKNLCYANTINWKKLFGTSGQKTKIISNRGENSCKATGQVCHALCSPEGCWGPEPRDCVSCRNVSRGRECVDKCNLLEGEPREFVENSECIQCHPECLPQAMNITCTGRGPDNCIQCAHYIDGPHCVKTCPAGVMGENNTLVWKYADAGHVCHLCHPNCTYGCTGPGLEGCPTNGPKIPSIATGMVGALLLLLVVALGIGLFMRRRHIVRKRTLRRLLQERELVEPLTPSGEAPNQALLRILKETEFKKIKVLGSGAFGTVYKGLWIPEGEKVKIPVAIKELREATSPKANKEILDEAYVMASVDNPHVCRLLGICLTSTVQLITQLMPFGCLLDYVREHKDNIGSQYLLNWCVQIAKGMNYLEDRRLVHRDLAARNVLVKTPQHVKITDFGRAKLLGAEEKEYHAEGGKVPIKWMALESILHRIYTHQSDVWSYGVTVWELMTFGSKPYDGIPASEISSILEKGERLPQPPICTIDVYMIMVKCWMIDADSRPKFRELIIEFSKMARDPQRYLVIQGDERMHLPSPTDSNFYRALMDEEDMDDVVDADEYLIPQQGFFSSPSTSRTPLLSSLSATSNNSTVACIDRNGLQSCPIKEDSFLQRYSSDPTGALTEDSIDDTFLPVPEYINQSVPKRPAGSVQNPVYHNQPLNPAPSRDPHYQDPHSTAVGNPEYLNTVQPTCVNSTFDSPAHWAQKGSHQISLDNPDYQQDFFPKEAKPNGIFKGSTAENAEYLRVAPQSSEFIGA
Chain of MARK2 (Q7KZI7 whole entry): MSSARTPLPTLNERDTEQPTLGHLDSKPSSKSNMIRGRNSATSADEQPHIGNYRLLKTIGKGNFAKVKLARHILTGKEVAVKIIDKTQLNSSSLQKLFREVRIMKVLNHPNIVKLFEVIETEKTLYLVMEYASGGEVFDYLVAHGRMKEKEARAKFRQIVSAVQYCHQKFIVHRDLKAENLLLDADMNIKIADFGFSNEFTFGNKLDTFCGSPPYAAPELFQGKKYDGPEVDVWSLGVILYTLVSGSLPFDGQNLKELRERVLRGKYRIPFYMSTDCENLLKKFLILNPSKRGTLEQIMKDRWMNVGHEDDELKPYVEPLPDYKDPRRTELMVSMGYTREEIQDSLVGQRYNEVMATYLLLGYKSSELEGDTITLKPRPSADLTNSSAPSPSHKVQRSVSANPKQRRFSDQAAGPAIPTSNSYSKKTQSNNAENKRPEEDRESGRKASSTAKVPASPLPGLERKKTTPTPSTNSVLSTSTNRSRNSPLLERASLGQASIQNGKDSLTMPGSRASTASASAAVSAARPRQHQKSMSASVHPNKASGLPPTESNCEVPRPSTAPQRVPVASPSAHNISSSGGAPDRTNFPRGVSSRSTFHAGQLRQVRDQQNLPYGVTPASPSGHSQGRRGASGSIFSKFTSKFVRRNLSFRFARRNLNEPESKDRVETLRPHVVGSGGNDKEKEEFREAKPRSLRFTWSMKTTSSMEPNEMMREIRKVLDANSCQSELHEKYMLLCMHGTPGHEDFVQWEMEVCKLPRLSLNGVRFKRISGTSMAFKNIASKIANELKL
Chain of KIT(A829P) (P10721 whole entry A829P): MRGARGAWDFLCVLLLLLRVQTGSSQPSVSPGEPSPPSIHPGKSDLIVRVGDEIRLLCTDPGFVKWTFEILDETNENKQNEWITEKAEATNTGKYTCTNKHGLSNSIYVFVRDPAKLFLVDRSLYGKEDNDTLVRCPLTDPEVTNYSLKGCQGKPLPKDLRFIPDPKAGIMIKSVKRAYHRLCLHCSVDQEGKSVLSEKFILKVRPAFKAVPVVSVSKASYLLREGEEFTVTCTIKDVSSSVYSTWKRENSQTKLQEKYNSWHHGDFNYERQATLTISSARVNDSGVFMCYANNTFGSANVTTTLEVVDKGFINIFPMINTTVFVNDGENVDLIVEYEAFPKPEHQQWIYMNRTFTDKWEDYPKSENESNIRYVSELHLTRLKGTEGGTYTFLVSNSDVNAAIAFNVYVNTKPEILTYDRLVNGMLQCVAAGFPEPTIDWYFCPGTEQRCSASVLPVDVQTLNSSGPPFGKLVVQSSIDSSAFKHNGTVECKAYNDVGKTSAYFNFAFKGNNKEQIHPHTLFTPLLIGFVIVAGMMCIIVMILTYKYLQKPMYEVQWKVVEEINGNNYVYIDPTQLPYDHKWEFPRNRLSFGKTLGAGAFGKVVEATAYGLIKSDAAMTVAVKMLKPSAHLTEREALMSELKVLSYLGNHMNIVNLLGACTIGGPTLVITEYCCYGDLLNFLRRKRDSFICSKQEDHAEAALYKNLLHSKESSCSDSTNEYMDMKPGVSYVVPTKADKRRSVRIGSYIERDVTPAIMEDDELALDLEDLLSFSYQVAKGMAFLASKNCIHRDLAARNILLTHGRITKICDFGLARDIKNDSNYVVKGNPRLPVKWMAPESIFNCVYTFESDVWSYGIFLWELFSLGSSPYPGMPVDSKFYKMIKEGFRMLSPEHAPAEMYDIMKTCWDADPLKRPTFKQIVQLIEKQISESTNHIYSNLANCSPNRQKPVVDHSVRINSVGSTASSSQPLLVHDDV
Chain of BMPR1A (P36894 whole entry): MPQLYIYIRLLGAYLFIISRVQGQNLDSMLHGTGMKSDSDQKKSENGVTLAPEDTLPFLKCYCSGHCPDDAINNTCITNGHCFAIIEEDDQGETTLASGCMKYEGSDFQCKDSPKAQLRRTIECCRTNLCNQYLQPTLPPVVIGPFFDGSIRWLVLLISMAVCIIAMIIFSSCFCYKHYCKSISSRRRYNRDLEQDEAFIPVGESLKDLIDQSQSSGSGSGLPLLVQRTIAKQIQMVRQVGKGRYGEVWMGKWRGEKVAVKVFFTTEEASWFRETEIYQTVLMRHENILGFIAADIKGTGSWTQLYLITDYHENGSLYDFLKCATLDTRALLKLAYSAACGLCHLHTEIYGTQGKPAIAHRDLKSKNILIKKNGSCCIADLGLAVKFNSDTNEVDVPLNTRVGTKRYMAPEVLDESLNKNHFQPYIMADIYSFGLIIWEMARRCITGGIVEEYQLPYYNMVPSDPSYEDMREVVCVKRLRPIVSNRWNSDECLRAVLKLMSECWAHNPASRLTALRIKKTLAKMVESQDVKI
Chain of EPHB6 (O15197 whole entry): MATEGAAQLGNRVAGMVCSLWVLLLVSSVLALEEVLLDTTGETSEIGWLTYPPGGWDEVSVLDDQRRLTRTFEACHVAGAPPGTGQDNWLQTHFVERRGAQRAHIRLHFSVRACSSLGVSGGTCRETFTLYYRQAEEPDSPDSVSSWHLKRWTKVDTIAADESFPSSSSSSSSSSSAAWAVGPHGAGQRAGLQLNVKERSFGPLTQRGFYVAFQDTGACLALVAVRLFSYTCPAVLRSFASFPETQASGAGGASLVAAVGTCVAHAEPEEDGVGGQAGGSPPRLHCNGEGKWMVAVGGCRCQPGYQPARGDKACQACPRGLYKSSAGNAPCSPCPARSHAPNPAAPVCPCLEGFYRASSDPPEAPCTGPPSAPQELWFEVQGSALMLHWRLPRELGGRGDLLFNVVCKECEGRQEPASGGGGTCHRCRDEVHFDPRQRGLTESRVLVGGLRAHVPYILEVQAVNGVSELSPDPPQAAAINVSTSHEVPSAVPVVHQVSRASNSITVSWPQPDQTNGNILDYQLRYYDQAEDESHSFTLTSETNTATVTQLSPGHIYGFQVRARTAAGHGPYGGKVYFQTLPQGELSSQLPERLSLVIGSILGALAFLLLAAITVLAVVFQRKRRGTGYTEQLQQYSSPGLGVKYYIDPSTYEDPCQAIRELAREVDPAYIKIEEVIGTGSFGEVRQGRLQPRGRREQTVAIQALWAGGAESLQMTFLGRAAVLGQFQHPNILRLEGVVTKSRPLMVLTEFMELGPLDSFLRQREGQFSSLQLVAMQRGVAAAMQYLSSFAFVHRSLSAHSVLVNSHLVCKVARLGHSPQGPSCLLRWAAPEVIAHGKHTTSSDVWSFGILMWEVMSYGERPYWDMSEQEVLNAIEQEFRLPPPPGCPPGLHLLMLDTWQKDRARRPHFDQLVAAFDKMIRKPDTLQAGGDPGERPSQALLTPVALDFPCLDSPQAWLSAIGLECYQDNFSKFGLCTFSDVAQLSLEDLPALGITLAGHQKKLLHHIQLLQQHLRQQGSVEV
Chain of ACVRL1 (P37023 whole entry): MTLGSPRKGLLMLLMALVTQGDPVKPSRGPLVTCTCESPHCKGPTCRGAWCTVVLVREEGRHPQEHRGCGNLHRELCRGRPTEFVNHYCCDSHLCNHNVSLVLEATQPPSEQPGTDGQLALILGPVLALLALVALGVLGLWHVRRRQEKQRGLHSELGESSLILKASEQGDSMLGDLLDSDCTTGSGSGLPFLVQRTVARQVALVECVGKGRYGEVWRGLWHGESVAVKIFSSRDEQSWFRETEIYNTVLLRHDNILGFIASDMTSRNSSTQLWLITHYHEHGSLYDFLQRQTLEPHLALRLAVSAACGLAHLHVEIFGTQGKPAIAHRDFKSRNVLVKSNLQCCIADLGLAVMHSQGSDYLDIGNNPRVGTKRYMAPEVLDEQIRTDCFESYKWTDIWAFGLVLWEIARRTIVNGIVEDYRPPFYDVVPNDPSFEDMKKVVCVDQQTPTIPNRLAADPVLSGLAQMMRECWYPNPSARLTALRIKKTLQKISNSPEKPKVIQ

Take `Cc1ccc(NC(=O)c2cccc(C(F)(F)F)c2)cc1Nc1cc(-c2cccnc2)nc2[nH]ccc12` [HZX-02-059]: the remaining binding at 1 µM in assay [1] amounted to 65%; in assay [2] it was 48%; in [3], 30%; at ACVRL1 it was 75%; at ADCK4, 91%; at BMPR1A it was 69%. Besides, the remaining binding at 1 µM was found to be 80% at CDC2L2; 87% at EGFR(L858R); 42% at EPHB6; 99% at ERK5; 100% at FLT3(R834Q); 100% in [4]. Besides, the remaining binding at 1 µM was found to be 84% on KIT(A829P); 72% at LKB1; 78% on MARK2; 78% on NEK1; 92% at PIK3CA(M1043I); 100% at RIPK1. In addition, the remaining binding at 1 µM was 88% on SBK1; 100% at SGK3; 100% at SLK; 98% on TAOK2; 99% at TTK; 100% at WNK3.
